Reference: PMC7146870, “VanZ Reduces the Binding of Lipoglycopeptide Antibiotics to Staphylococcus aureus and Streptococcus pneumoniae Cells” (Frontiers in Microbiology, 2020)
Values after ≈ are worked out from the molar mass of the structure shown. Read-outs that look alike come from different tables or passages of the source.

Legend:
S. aureus ATCC29213 = experiment: MIC, broth microdilution, control strain; format: cell-based, Staphylococcus aureus; details: ISO 20776-1 (EUCAST 2019), performed twice in triplicate
Protocol: (§1) Minimal Inhibitory Concentrations were measured by the broth microdilution method according to ISO standard 20776-1 (EUCAST 2019). S. aureus strains with pRMC2, pRMC2:vanZTei and pRMC2:vanZg plasmids were cultured in the presence of 25 μg/ml chloramphenicol and 100 ng/ml AnhTet (Sigma-Aldrich, Germany) to induce vanZ gene expression. All measurements were performed twice in triplicate. S. aureus ATCC29213 was used as a control. MIC values of clinically accepted glycopeptide antibiotics were interpreted according to EUCAST clinical breakpoints (EUCAST, 2019).

S. aureus RN4220 pRMC2 = experiment: MIC, broth microdilution, empty vector strain; format: cell-based, Staphylococcus aureus; details: ISO 20776-1, 25 μg/ml chloramphenicol and 100 ng/ml AnhTet, twice in triplicate
Description: (§2) The vanZTei and vanZg genes and their ribosome binding sites were amplified from the plasmid pAT398 ([Arthur et al., 1995]) and E. faecium Aus0004 chromosomal DNA, respectively, using the primers TecVanZ_SacI_F, TecVanZ_R, gVanZ_SacI_F, and gVanZ_R (Supplementary Table S1). The PCR products were cloned into the pRMC2 shuttle vector under the control of the anhydrotetracycline (AnhTet)-inducible promoter Pxyl/tetO using SacI and EcoRI restriction sites, resulting in the constructs pRMC2:vanZTei and pRMC2:vanZg. The constructs were confirmed by sequencing and then electroporated into S. aureus RN4220. Using the same procedure, we prepared the constructs pRMC2:vanZTei-His and pRMC2:vanZg-His encoding C-terminal His-tagged VanZ variants. However, primers TecVanZhis_R and gVanZhis_R replaced the reverse primers TecVanZ_R and gVanZ_R.
as §1

[1] = tested on: S. aureus RN4220 pRMC2:vanZTei; experiment: MIC, broth microdilution, strain expressing vanZTei; format: cell-based, Staphylococcus aureus; details: for MIC: S. aureus RN4220 vanZTei, broth microdilution, ISO 20776-1, 25 μg/ml chloramphenicol and 100 ng/ml AnhTet, twice in triplicate; for decrease of susceptibility of S. aureus by expression of vanZTei: MIC of RN4220 vanZTei versus RN4220 pRMC2
Description: as §2, §1

[2] = tested on: S. aureus RN4220 pRMC2:vanZg; experiment: MIC, broth microdilution, strain expressing vanZg; format: cell-based, Staphylococcus aureus; details: for MIC: S. aureus RN4220 vanZg, broth microdilution, ISO 20776-1, 25 μg/ml chloramphenicol and 100 ng/ml AnhTet, twice in triplicate; for decrease of susceptibility of S. aureus by expression of vanZg: MIC of RN4220 vanZg versus RN4220 pRMC2
Description: as §2, §1

S. pneumoniae R6 = experiment: MIC, broth microdilution, wild type; format: cell-based, Streptococcus pneumoniae; details: ISO 20776-1, twice in triplicate
Protocol: as §1

S. pneumoniae R6 ΔvanZ = experiment: MIC, broth microdilution, vanZ knockout; format: cell-based, Streptococcus pneumoniae
Description: (§3) Strain Sp539 (ΔvanZ) was constructed using a Sweet Janus cassette-based two-step negative selection strategy ([Sung et al., 2001]; [Li et al., 2014]). The Sweet Janus cassette contains the kanamycin resistance gene, the recessive rpsL gene and the sacB gene, which confers sucrose sensitivity (Su^S), as counterselectable markers. In the first step, 1000 bp fragments corresponding to the upstream and downstream flanking regions of the vanZ gene (spr0050) were amplified from the wild-type chromosomal DNA with the primer pairs KB60/KB61 and KB62/KB63, respectively. The Sweet Janus cassette (2807 bp) amplified from the Sweet Janus cassette DNA fragment with the primers DP1/DP2 was attached to the regions flanking vanZ by fusion PCR using primers KB60 and KB63. The resulting PCR fragment was used for the transformation of the S. pneumoniae R6 strain, and Kan^R/Su^S transformants (Sp537, vanZ:kan sacB) were selected. The PCR fragments consisting of the upstream and downstream flanking regions of the vanZ gene were amplified by the KB60/KB65 and KB64/KB63 primer pairs, respectively, and fused by overlap extension using primers KB60/KB63. The resulting fragment was transformed into the Sp537 strain to obtain Sp539 (Su^R/Kan^S). To complement the vanZ deletion, we constructed strain Sp635 (Su^R/Kan^S; ΔvanZ:vanZ) by transforming strain Sp537 (Kan^R/Su^S) with the PCR fragment amplified with the primers KB60 and KB63 that contained wild-type loci using R6 chromosomal DNA as a template.
as §1

[3] = tested on: S. pneumoniae R6 ΔvanZ:vanZ; experiment: MIC, broth microdilution, vanZ-reverted strain; format: cell-based, Streptococcus pneumoniae
Description: as §3, §1

[4] = Staphylococcus aureus, ATCC29213, S. aureus ATCC 29213 (control), read-out: MIC
[5] = Staphylococcus aureus, RN4220PRMC2, S. aureus RN4220 pRMC2 (no VanZ), read-out: MIC
[6] = Staphylococcus aureus, read-out: MIC
[7] = Streptococcus pneumoniae, read-out: MIC
[8] = S. aureus RN4220 pRMC2 (no VanZ)
[9] = S. pneumoniae R6 ΔvanZ, broth microdilution, ISO 20776-1, twice in triplicate
[10] = S. pneumoniae R6 ΔvanZ:vanZ (complemented), broth microdilution, ISO 20776-1, twice in triplicate

For `CC1(C)S[C@@H]2[C@H](NC(=O)C(C(=O)O)c3ccccc3)C(=O)N2[C@H]1C(=O)O` (some centres unmarked) [CARB, carbenicillin], the MIC (S. aureus ATCC29213; [4]) was 0.25 µg/mL (≈ 0.661 µM), the MIC (S. aureus RN4220 pRMC2; [5]) was 0.25 µg/mL (≈ 0.661 µM) and the MIC [1, 6] was 0.25 µg/mL (≈ 0.661 µM). For the same compound, the MIC [2, 6] was 0.25 µg/mL (≈ 0.661 µM), the MIC (S. pneumoniae R6; [7]) was 0.0625 µg/mL (≈ 0.165 µM) and the MIC (S. pneumoniae R6 ΔvanZ; Streptococcus pneumoniae) was 0.0625 µg/mL (≈ 0.165 µM). For the same compound, the MIC ([3]; Streptococcus pneumoniae) was 0.0625 µg/mL (≈ 0.165 µM).
For vancomycin, the MIC (S. aureus ATCC29213; S. aureus ATCC 29213 (control)) was 0.25 µg/mL, the MIC (S. aureus RN4220 pRMC2; [8]) was 0.5 µg/mL and the MIC [1] was 0.5 µg/mL. For the same compound, the MIC [2] was 1 µg/mL, the MIC (S. pneumoniae R6) was 0.25 µg/mL and the “sensitivity of the ΔvanZ mutant compared with the wild-type strain” value (S. pneumoniae R6 ΔvanZ; MIC of S. pneumoniae R6 ΔvanZ versus R6) was “not”. For the same compound, the MIC (S. pneumoniae R6 ΔvanZ; [9]) was 0.25 µg/mL and the MIC [3, 10] was 0.25 µg/mL.
With dalbavancin the MIC (S. aureus ATCC29213; S. aureus ATCC 29213 (control)) was 0.125 µg/mL, the “decrease of susceptibility of S. aureus by expression of vanZTei” value (shortened to “decrease of susceptibility … of vanZTei”) [1] was “less or no activity” and the “decrease of susceptibility of S. aureus by expression of vanZg” value (shortened to “decrease of susceptibility … of vanZg”) [2] was “four-fold”. For the same compound, the MIC [2] was 0.5 µg/mL, the MIC (S. pneumoniae R6) was 0.03125 µg/mL and the MIC (S. pneumoniae R6 ΔvanZ; [9]) was 0.0078 µg/mL.
For teicoplanin, the MIC (S. aureus ATCC29213; S. aureus ATCC 29213 (control)) was 0.125 µg/mL, the MIC (S. aureus RN4220 pRMC2; [8]) was 0.5 µg/mL and the “decrease of susceptibility … of vanZTei” value [1] was “less or no activity”. For the same compound, the MIC [1] was 1 µg/mL, the “decrease of susceptibility … of vanZg” value [2] was 16 fold and the MIC [2] was 8 µg/mL. For the same compound, the MIC (S. pneumoniae R6) was 0.125 µg/mL and the MIC (S. pneumoniae R6 ΔvanZ; [9]) was 0.03125 µg/mL.
For oritavancin, the MIC (S. aureus ATCC29213; S. aureus ATCC 29213 (control)) was 0.125 µg/mL, the “decrease of susceptibility … of vanZTei” value [1] was “less or no activity” and the “decrease of susceptibility … of vanZg” value [2] was “two times”. The MIC [2] was 0.25 µg/mL, the MIC (S. pneumoniae R6) was 0.0078 µg/mL and the MIC (S. pneumoniae R6 ΔvanZ; [9]) was 0.0039 µg/mL. For the same compound, the MIC [3, 10] was 0.0078 µg/mL.
`CC[C@H]1OC(=O)[C@H](C)[C@@H](O[C@H]2C[C@@](C)(OC)[C@@H](O)[C@H](C)O2)[C@H](C)[C@@H](O[C@@H]2O[C@H](C)C[C@H](N(C)C)[C@H]2O)[C@](C)(O)C[C@@H](C)C(=O)[C@H](C)[C@@H](O)[C@]1(C)O` [ERY, erythromycin] gave an MIC (S. aureus ATCC29213; [4]) of 0.125 µg/mL (≈ 0.17 µM), an MIC (S. aureus RN4220 pRMC2; [5]) of 0.125 µg/mL (≈ 0.17 µM) and an MIC [1, 6] of 0.125 µg/mL (≈ 0.17 µM). It also gave an MIC [2, 6] of 0.125 µg/mL (≈ 0.17 µM), an MIC (S. pneumoniae R6; [7]) of 0.125 µg/mL (≈ 0.17 µM) and an MIC (S. pneumoniae R6 ΔvanZ; Streptococcus pneumoniae) of 0.125 µg/mL (≈ 0.17 µM). The MIC ([3]; Streptococcus pneumoniae) was 0.125 µg/mL (≈ 0.17 µM).
`CNC(C)C1CCC(N)C(OC2C(N)CC(N)C(OC3OCC(C)(O)C(NC)C3O)C2O)O1` (centres unmarked) [GEN, gentamicin] showed an MIC (S. aureus ATCC29213; [4]) of 1 µg/mL (≈ 2.09 µM), an MIC (S. aureus RN4220 pRMC2; [5]) of 1 µg/mL (≈ 2.09 µM) and an MIC [1, 6] of 1 µg/mL (≈ 2.09 µM). The MIC [2, 6] was 1 µg/mL (≈ 2.09 µM), the MIC (S. pneumoniae R6; [7]) was 0.25 µg/mL (≈ 0.523 µM) and the MIC (S. pneumoniae R6 ΔvanZ; Streptococcus pneumoniae) was 0.25 µg/mL (≈ 0.523 µM). The MIC ([3]; Streptococcus pneumoniae) was 0.25 µg/mL (≈ 0.523 µM).
